Results: patent publication US20110178064A1, “SPIRO CONDENSED […] DERIVATIVES FOR USE AS ANTIBACTERIAL” (A[…]&D, priority 2007, published 2011)
In brackets after ≈: the same amount, converted by molar mass. Read-outs that look alike come from different tables or passages of the source.

Legend:
[1] = tested on: Eco524; assay: Bacterial susceptibility testing (MIC) in liquid media, 96 well format; format: cell-based; conditions: Escherichia coli
Description: (§1) Compounds may be tested for antimicrobial activity by susceptibility testing in liquid media in a 96 well format. Compounds may be dissolved in dimethylsulfoxide and tested in 10 doubling dilutions in the susceptibility assays. The organisms used in the assay may be grown overnight on suitable agar media and then suspended in a liquid medium appropriate for the growth of the organism. The suspension may be a 0.5 McFarland and a further 1 in 10 dilution may be advantageously made into the same liquid medium to prepare the final organism suspension in 100 μL. Plates may be incubated under appropriate conditions at 37° C. for 24 hours prior to reading. […] Compounds may be evaluated against organisms such as Gram-positive species, including Staphylococcus aureus, Streptococcus pneumoniae, Streptococcus pyogenes, and Enterococcus faecium; and Gram-negative species including Haemophilus influenzae, Escherichia coli and Moraxella catarrhalis.

[2] = tested on: Hin158; assay: as above; format: cell-based; conditions: Haemophilus influenzae
Description: as §1

[3] = tested on: Hin446; assay: as above; format: cell-based; conditions: Haemophilus influenzae
Description: as §1

[4] = tested on: Hin737; assay: as above; format: cell-based; conditions: Haemophilus influenzae
Description: as §1

[5] = target: Escherichia coli DNA gyrase A/B tetramer (Escherichia coli, UniProt P0AES4+P0AES6); assay: DNA gyrase supercoiling activity fluorescence polarisation assay; format: biochemical
Escherichia coli DNA gyrase A/B tetramer, sequence (P0AES4 whole entry, one chain of several): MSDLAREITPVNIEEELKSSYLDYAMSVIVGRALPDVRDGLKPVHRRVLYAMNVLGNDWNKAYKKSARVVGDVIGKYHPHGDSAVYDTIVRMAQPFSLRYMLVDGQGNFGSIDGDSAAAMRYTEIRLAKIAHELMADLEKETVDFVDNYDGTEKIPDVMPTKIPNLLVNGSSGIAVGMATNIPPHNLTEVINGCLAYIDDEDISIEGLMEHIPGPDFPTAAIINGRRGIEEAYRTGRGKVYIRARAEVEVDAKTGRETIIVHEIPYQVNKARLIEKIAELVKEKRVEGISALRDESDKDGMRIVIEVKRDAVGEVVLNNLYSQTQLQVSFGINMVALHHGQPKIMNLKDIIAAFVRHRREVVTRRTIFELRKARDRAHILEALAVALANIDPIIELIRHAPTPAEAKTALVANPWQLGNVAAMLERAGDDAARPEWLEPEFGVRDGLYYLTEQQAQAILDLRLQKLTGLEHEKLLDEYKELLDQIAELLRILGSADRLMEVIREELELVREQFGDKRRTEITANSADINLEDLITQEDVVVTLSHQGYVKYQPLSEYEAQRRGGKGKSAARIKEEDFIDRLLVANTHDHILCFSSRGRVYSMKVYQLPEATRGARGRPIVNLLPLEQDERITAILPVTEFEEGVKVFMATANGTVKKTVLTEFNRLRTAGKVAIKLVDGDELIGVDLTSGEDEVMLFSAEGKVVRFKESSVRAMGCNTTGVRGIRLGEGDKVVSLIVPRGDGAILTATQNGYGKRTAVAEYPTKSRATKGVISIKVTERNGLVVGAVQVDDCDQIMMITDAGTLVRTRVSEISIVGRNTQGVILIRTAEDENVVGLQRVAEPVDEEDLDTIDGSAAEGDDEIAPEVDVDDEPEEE
Method in brief: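 Gyrase supercoiling reactions quenched with 40 nM 5′-BODIPY-FL oligodeoxynucleotide triplex probe in pH 3.5 NaCl/sodium acetate buffer; fluorescence anisotropy read after 60 min (485/535 nm).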

[6] = tested on: Mca445; assay: Bacterial susceptibility testing (MIC) in liquid media, 96 well format; format: cell-based; conditions: Moraxella catarrhalis
Description: as §1

[7] = tested on: Sau517; assay: as above; format: cell-based; conditions: Staphylococcus aureus
Description: as §1

[8] = E. coli DNA gyrase supercoiling, asterisk: no IC50 obtained at or below the indicated concentration, read-out: IC50

Molecule | IC50 [5] [µM] | further results
C[C@@H]1CN2c3ncccc3CC3(C(=O)NC(=O)NC3=O)[C@H]2[C@H](C)O1 (relative stereo) [Example 18, (6aS,7S,9R)-rel-7,9-Dimethyl-6a,7,9,10-tetrahydro-1′H,5H-spiro[[1,4]oxazino[4,3-a][1,8]naphthyridine-6,5′-pyrimidine]-2′,4′,6′(3′H)-trione] | 51 | MIC [1]: 32 µg/mL (≈ 96.9 µM); MIC [2]: 8 µg/mL (≈ 24.2 µM); MIC [3]: 16 µg/mL (≈ 48.4 µM); MIC [4]: 32 µg/mL (≈ 96.9 µM)
C[C@@H]1CN2c3ccc(Br)nc3CC3(C(=O)NC(=O)NC3=O)[C@H]2[C@H](C)O1 (relative stereo) [Example 19, (2R,4S,4aS)-rel-8-Bromo-2,4-dimethyl-2,4,4a,6-tetrahydro-1H,1′H-spiro[[1,4]oxazino[4,3-a][1,5]naphthyridine-5,5′-pyrimidine]-2′,4′,6′(3′H)-trione] | 11 | MIC [1]: 2 µg/mL (≈ 4.89 µM); MIC [2]: 1 µg/mL (≈ 2.44 µM); MIC [3]: 4 µg/mL (≈ 9.77 µM); MIC [4]: 16 µg/mL (≈ 39.1 µM); MIC [6]: 8 µg/mL (≈ 19.5 µM); MIC [7]: 32 µg/mL (≈ 78.2 µM)
C[C@H]1CN2c3ncc(-c4nnnn4C)cc3CC3(C(=O)NC(=O)NC3=O)[C@@H]2[C@@H](C)O1 (relative stereo) [Example 120(b), (6aR,7R,9S)-rel-7,9-Dimethyl-3-(1-methyl-1H-tetrazol-5-yl)-6a,7,9,10-tetrahydro-2′H,5H-spiro[1,4-oxazino[4,3-a][1,8]naphthyridine-6,5′-pyrimidine]-2′,4′,6′(1′H,3′H)-trione] | 14 | 
C[C@@H]1CN2c3ncc(C(=N)NO)cc3CC3(C(=O)NC(=O)NC3=O)[C@H]2[C@H](C)O1 (relative stereo) [Example 121, (6aS,7S,9R)-rel-N-Hydroxy-7,9-dimethyl-2′,4′,6′-trioxo-1′,3′,4′,6′,6a,7,9,10-octahydro-2′H,5H-spiro[1,4-oxazino[4,3-a][1,8]naphthyridine-6,5′-pyrimidine]-3-carboximidamide] | 9 | 
Cc1nc(-c2cnc3c(c2)CC2(C(=O)NC(=O)NC2=O)[C@H]2[C@H](C)O[C@H](C)CN32)no1 (relative stereo) [Example 122, (6aS,7S,9R)-rel-7,9-dimethyl-3-(5-methyl-1,2,4-oxadiazol-3-yl)-6a,7,9,10-tetrahydro-2′H,5H-spiro[1,4-oxazino[4,3-a][1,8]naphthyridine-6,5′-pyrimidine]-2′,4′,6′(1′H,3′H)-trione] | 10 | 
C[C@@H]1CN2c3ncc(-c4noc(-c5ccccc5)n4)cc3CC3(C(=O)NC(=O)NC3=O)[C@H]2[C@H](C)O1 (relative stereo) [Example 123, (6aS,7S,9R)-rel-7,9-Dimethyl-3-(5-phenyl-1,2,4-oxadiazol-3-yl)-6a,7,9,10-tetrahydro-2′H,5H-spiro[1,4-oxazino[4,3-a][1,8]naphthyridine-6,5′-pyrimidine]-2′,4′,6′(1′H,3′H)-trione] | 9 | 
CC1CC(C)C2N(C1)c1cnc(Br)cc1CC21C(=O)NC(=O)NC1=O (stereo not shown) [Example 2, 3-Bromo-7,9-Dimethyl-5,6a,7,8,9,10-hexahydro-1′H-spiro[pyrido[1,2-a][1,7]naphthyridine-6,5′-pyrimidine]-2′,4′,6′(3′H)-trione] | 9 | 
O=C1NC(=O)C2(Cc3ccnc(Cl)c3N3CCCCC32)C(=O)N1 (stereo not shown) [Example 4, 1-chloro-5,6a,7,8,9,10-Hexahydro-1′H-spiro[pyrido[1,2-a][1,7]naphthyridine-6,5′-pyrimidine]-2′,4′,6′(3′H)-trione] | > 100 | 
O=C1NC(=O)C2(Cc3c(F)cncc3N3CCCCC32)C(=O)N1 (stereo not shown) [Example 5, 4-Fluoro-5,6a,7,8,9,10-Hexahydro-1′H-spiro[pyrido[1,2-a][1,7]naphthyridine-6,5′-pyrimidine]-2′,4′,6′(3′H)-trione] | > 100 | 
CC1C[C@@H](C)[C@H]2N(C1)c1ncccc1CC21C(=O)NC(=O)NC1=O (stereo partly drawn) [Example 7, (6aR,7R)-7,9-Dimethyl-5,6a,7,8,9,10-hexahydro-1′H-spiro[pyrido[1,2-a][1,8]naphthyridine-6,5′-pyrimidine]-2′,4′,6′(3′H)-trione] | 3 | 
CC1C[C@@H](C)[C@H]2N(C1)c1ccc(Br)nc1CC21C(=O)NC(=O)NC1=O (stereo partly drawn) [Example 8, (6aR,7R)-3-Bromo-7,9-dimethyl-5,6a,7,8,9,10-hexahydro-1′H-spiro[pyrido[1,2-a][1,5]naphthyridine-6,5′-pyrimidine]-2′,4′,6′(3′H)-trione] | > 83 | 
O=C1NC(=O)C2(Cc3cc(Br)cnc3N3CCCCC32)C(=O)N1 (stereo not shown) [Example 10, 3-Bromo-5,6a,7,8,9,10-hexahydro-1′H-spiro[pyrido[1,2-a][1,8]naphthyridine-6,5′-pyrimidine]-2′,4′,6′(3′H)-trione] | > 83 | 
CC1C[C@@H](C)[C@H]2N(C1)c1ncc(Br)cc1CC21C(=O)NC(=O)NC1=O (stereo partly drawn) [Example 11, (6aR,7R)-3-Bromo-7,9-dimethyl-5,6a,7,8,9,10-hexahydro-1′H-spiro[pyrido[1,2-a][1,8]naphthyridine-6,5′-pyrimidine]-2′,4′,6′(3′H)-trione] | 30 | 
C[C@H]1C[C@@H](C)[C@H]2N(C1)c1c(ccnc1Cl)CC21C(=O)NC(=O)NC1=O [Example 13, (6aR,7R,9S)-1-chloro-7,9-dimethyl-5,6a,7,8,9,10-hexahydro-1′H-spiro[pyrido[1,2-a][1,7]naphthyridine-6,5′-pyrimidine]-2′,4′,6′(3′H)-trione] | 25 | 
Cc1nnc(-c2cc3c(nc2F)N2C[C@@H](C)C[C@@H](C)[C@@H]2C2(C3)C(=O)NC(=O)NC2=O)s1 [Example 17, (6aR,7R,9S)-2-Fluoro-7,9-dimethyl-3-(5-methyl-1,3,4-thiadiazol-2-yl)-5,6a,7,8,9,10-hexahydro-1′H-spiro[pyrido[1,2-a][1,8]naphthyridine-6,5′-pyrimidine]-2′,4′,6′(3′H)-trione] | 6 | 
CC1CN2c3ncc(-c4nccs4)cc3CC3(C(=O)NC(=O)NC3=O)C2C(C)O1 [Example 25, (6aS,7S,9R)-rel-7,9-Dimethyl-3-(1,3-thiazol-2-yl)-6a., 7,9,10-tetrahydro-2′H,5H-spiro[1,4-oxazino[4,3-a][1,8]naphthyridine-6,5′-pyrimidine]-2′,4′,6′(1′H,3′H)-trione] |  | IC50 [5, 8]: 9 µM
CC1CN2c3ncc(-c4ccnn4C)cc3CC3(C(=O)NC(=O)NC3=O)C2C(C)O1 [Example 41, (6aS,7S,9R)-rel-7,9-Dimethyl-3-(1-methyl-1H-pyrazol-5-yl)-6a., 7,9,10-tetrahydro-2′H,5H-spiro[1,4-oxazino[4,3-a][1,8]naphthyridine-6,5′-pyrimidine]-2′,4′,6′(1′H,3′H)-trione] |  | IC50 [5, 8]: 5 µM
CC1CN2c3ncc(-c4cn[nH]c4)cc3CC3(C(=O)NC(=O)NC3=O)C2C(C)O1 [Example 44, (6aS,7S,9R)-rel-7,9-Dimethyl-3-(1H-pyrazol-4-yl)-6a., 7,9,10-tetrahydro-2′H,5H-spiro[1,4-oxazino[4,3-a][1,8]naphthyridine-6,5′-pyrimidine]-2′,4′,6′(1′H,3′H)-trione] |  | IC50 [5, 8]: > 10 µM
C[C@H]1C[C@@H](C)[C@H]2N(C1)c1cnc(-c3ccn[nH]3)cc1CC21C(=O)NC(=O)NC1=O [Example 117, (6aR,7R,9S)-7,9-Dimethyl-3-(1H-pyrazol-5-yl)-5,6a,7,8,9,10-hexahydro-1′H-spiro[pyrido[1,2-a][1,7]naphthyridine-6,5′-pyrimidine]-2′,4′,6′(3′H)-trione] | 1 | 
(2R,4S,4aS)-rel-2,4-Dimethyl-8-(1H-pyrazol-4-yl)-1,2,4,4a-tetrahydro-2′H,6H-spiro[1,4-oxazino[4,3-a][1,5]naphthyridine-5,5′-pyrimidine]-2′,4′,6′(1′H,3′H)-trione [Example 72] |  | IC50 [5, 8]: > 5 µM
(6aS,7S,9R)-rel-3-(6-Methoxypyrazin-2-yl)-7,9-dimethyl-6a,7,9,10-tetrahydro-2′H,5H-spiro[1,4-oxazino[4,3-a][1,7]naphthyridine-6,5′-pyrimidine]-2′,4′,6′(1′H,3′H)-trione [Example 105] |  | IC50 [5, 8]: 19 µM
